Assay results: patent publication US20050203086A1, “Methods of treatment using an EP2 selective receptor agonist” (Pfizer Inc., priority 2004, published 2005)
pIC50: −log10 of the molar value.

Molecular target: T1, prostaglandin E2 type 2 (EP2) receptors (Homo sapiens, UniProt P43116)
T1 construct: These full length receptors are used to prepare 293S cells expressing the EP1, EP2, EP3 and EP4 receptors; expressed in transfected cells; membranes
Test: Assay for Binding to Prostaglandin E2 Receptors (3H-prostaglandin E2 displacement, membranes of transfected 293S cells)
Conditions: concentration displacing 50% of specifically bound 3H-prostaglandin E2, 1 hour at 25° C.
Experimental: Membrane Preparation: All operations are performed at […]. Transfected cells expressing prostaglandin E2 type 1 receptors (EP1), type 2 (EP2), type 3 (EP3) or type 4 (EP4) receptors are harvested and suspended to 2 million cells per ml in Buffer A [50 mM Tris-HCl (pH 7.4), 10 mM MgCl2, 1 mM EDTA, 1 mM Pefabloc peptide, (Boehringer Mannheim Corp., Indianapolis, Ind.), 10 uM Phosporamidon peptide, (Sigma, St. Louis, Mo.), 1 uM pepstatin A peptide, (Sigma, St. Louis, Mo.), 10 uM elastatinal peptide, (Sigma, St. Louis, Mo.), 100 uM antipain peptide, (Sigma, St. Louis, Mo.)]. The cells are lysed by sonification with a Branson Sonifier (Model #250, Branson Ultrasonics Corporation, Danbury, Conn.) in 2 fifteen second bursts. Unlysed cells and debris are removed by centrifugation, at 100×g for 10 min. Membranes are then harvested by centrifugation at 45,000×g for 30 minutes. […] Resuspended membranes are then stored frozen at −80° C. until use.
Binding Assay: Frozen membranes prepared as above are thawed and diluted to 1 mg protein per ml in Buffer A above. […] The membranes with bound ^3H-prostaglandin E2 are trapped by the filter, while the buffer and unbound ^3H-prostaglandin E2 pass through the filter into waste. Each sample is then washed 3 times with 3 ml of [50 mM Tris-HCl (pH 7.4), 10 mM MgCl2, 1 mM EDTA]. The filters are then dried by heating in a microwave oven.
Typically, PCR (polymerase chain reaction) primers corresponding to the 5′ and 3′ ends of the published full length receptor are made according to the well known methods disclosed above and are used in an RT-PCR reaction using the total RNA from human kidney (for EP1), human lung (for EP2), human lung (for EP3) or human lymphocytes (for EP4) as a source. PCR products are cloned by the TA overhang method into pCR2.1 (Invitrogen, Carlsbad, Calif.) and identity of the cloned receptor is confirmed by DNA sequencing.
Stable cell lines expressing the receptor are established following selection of transfected cells with G418.

T1 sequence (P43116 whole entry): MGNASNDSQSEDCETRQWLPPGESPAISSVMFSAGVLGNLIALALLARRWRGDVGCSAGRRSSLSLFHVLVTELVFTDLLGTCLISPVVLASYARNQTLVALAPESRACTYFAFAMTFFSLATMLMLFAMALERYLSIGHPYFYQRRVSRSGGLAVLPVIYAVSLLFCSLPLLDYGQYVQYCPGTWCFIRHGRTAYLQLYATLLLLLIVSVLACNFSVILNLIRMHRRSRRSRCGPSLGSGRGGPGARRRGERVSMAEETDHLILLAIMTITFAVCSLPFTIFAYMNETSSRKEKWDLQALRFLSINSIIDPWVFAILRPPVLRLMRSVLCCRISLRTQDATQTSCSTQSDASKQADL

pIC50	Compound
6.74	O=C(O)c1ccc(CCCN(CCCc2cccc(Cl)c2)C(=O)N2CCOCC2)s1 [Example 8a, 5-(3-((3-(3-Chloro-phenyl)-Propyl)-(morpholine-4-carbonyl)-amino)-propyl)-thiophene-2-carboxylic acid]
6.58	CC(C)OC(=O)N(CCCc1cccc(Cl)c1)CCCc1ccc(C(=O)O)s1 [Example 8b, 5-(3-((3-(3-Chloro-phenyl)-propyl)-isopropoxycarbonyl-amino)-propyl)-thiophene-2-carboxylic acid]
7.07	CCCCc1ccc(CN(Cc2cccc(CC(=O)O)c2)S(=O)(=O)c2ccccc2)cc1 [Example 9a, (3-((Benzenesulfonyl-(4-butyl-benzyl)-amino)-methyl)-phenyl)-acetic acid]
7.02	CCCCc1ccc(CN(Cc2cccc(CC(=O)O)c2)S(=O)(=O)c2cccs2)cc1 [Example 9b, (3-(((4-Butyl-benzyl)-(thiophene-2-sulfonyl)-amino)-methyl)-phenyl)-acetic acid]
6.31	CCCCc1ccc(CN(Cc2cccc(CC(=O)O)c2)S(=O)(=O)c2ccc(NC(C)=O)cc2)cc1 [Example 9c, (3-(((4-Acetylamino-benzenesulfonyl)-(4-butyl-benzyl)-amino)-methyl)-phenyl)-acetic acid]
6.69	CCCCc1ccc(CN(Cc2cccc(CC(=O)O)c2)S(=O)(=O)c2cccc3nonc23)cc1 [Example 9d, (3-(((Benzo[1,2,5]oxadiazole-4-sulfonyl)-(4-butyl-benzyl)-amino)-methyl)-phenyl)-acetic acid]

The next lines start with the compound.

Compound	pIC50
Cc1noc(C)c1S(=O)(=O)N(CCCc1cccc(Cl)c1)CCCc1ccc(C(=O)O)s1 [Example 6h, 5-(3-((3-(3-Chloro-phenyl)-propyl)-(3.5-dimethyl-isoxazole-4-sulfonyl)-amino)-propyl)-thiophene-2-carboxylic acid]	6.85
COc1ccc(OC)c(S(=O)(=O)N(CCCc2cccc(Cl)c2)CCCc2ccc(C(=O)O)s2)c1 [Example 6i, 5-(3-((3-(3-Chloro-phenyl)-propyl)-(2,5-dimethoxy-benzenesulfonyl)-amino)-propyl)-thiophene-2-carboxylic acid]	6.57
O=C(O)c1ccc(CCCN(CCCc2cccc(Cl)c2)S(=O)(=O)c2ccccc2F)s1 [Example 6j, 5-(3-((3-(3-Chloro-phenyl)-propyl)-(2-fluoro-benzenesulfonyl)-amino)-propyl)-thiophene-2-carboxylic acid]	6.43
CC(C)NC(=O)N(CCCc1cccc(Cl)c1)CCCc1ccc(C(=O)O)s1 [Example 7a, 5-(3-(1-(3-(3-Chloro-phenyl)-propyl)-3-isopropyl-ureido)-propyl)-thiophene-2-carboxylic acid]	6.40
O=C(O)c1ccc(CCCN(CCCc2cccc(Cl)c2)C(=O)Nc2ccccc2)s1 [Example 7b, 5-(3-(1-(3-(3-Chloro-phenyl)-propyl)-3-phenyl-ureido)-propyl)-thiophene-2-carboxylic acid]	6.85
O=C(O)c1ccc(CCCN(CCCc2cccc(Cl)c2)C(=O)Nc2ccc(Cl)c(Cl)c2)s1 [Example 7c, 5-(3-(1-(3-(3-Chloro-phenyl)-propyl)-3-(3,4-dichloro-phenyl)-ureido)-propyl)-thiophene-2-carboxylic acid]	6.59
CCCNC(=O)N(CCCc1cccc(Cl)c1)CCCc1ccc(C(=O)O)s1 [Example 7d, 5-(3-(1-(3-(3-Chloro-Phenyl)-propyl)-3-propyl-ureido)-propyl)-thiophene-2-carboxylic acid]	7.28
O=C(O)c1ccc(CCCN(CCCc2cccc(Cl)c2)C(=O)Nc2cccc(Cl)c2Cl)s1 [Example 7f, 5-(3-(1-(3-(3-Chloro-phenyl)-propyl)-3-(2,3-dichloro-phenyl)-ureido)-propyl) thiophene-2-carboxylic acid]	6.46
O=C(O)c1ccc(CCCN(CCCc2cccc(Cl)c2)C(=O)Nc2cc(Cl)cc(Cl)c2)s1 [Example 7g, 5-(3-(1-(3-(3-Chloro-phenyl)-propyl)-3-(3,5-dichloro-phenyl)-ureido)-propyl)-thiophene-2-carboxylic acid]	6.39
O=C(O)c1ccc(CCCN(CCCc2cccc(Cl)c2)C(=O)Nc2c(F)cccc2F)s1 [Example 7h, 5-(3-(1-(3-(3-Chloro-phenyl)-propyl)-3-(2,6-difluoro-phenyl)-ureido)-propyl)-thiophene-2-carboxylic acid]	6.76
O=C(O)c1ccc(CCCN(CCCc2cccc(Cl)c2)C(=O)N2CCCC2)s1 [Example 8, 5-(3-((3-(3-Chloro-phenyl)-propyl)-(Pyrrolidine-1-carbonyl)-amino)-propyl)-thiophene-2-carboxylic acid]	7.15
(3-(((4-Butyl-benzyl)-(pyridine-3-sulfonyl)-amino)-methyl)-phenyl)-acetic acid [Example 9]	7.77
